The values below come from patent EP4741389A1, “KAT6 INHIBITOR” (Shanghai Qilu Pharmaceutical Research and Development …, priority 2023, dated 2025).

One experiment addresses T1, KAT6A (Homo sapiens, UniProt Q92794).
T1 construct: purchased Active Motif 81223
Description: KATs acetyltransferase enzyme activity assay (TR-FRET), KAT6A. It counts as biochemical. Particulars: Biotin-H3 (1-21) and AcCOA, 90 minutes at room temperature. As for the experimental part:
(§1) I. KATs acetyltransferase enzyme activity assay
• 1. The inhibitory effect of compounds on the acetyltransferase activity of KATs was evaluated using the Time-Resolved Fluorescence Resonance Energy Transfer (TR-FRET) assay. The assay was conducted in 384-well plates using Tris-HCl buffer. • 2. Compounds were diluted in DMSO and transferred to 384-well plates. […] Subsequently, 2.5 µL of a mixture containing KAT6A/KAT6B: Biotin-H3 (1-21, Genscript, C6829GL060) or KAT5/7/8: Bio-H4 (1-25, Genscript, C736BGL100) AcCOA (Sigma, A2056) was added, and the reaction proceeded at room temperature for 90 minutes. • 4. After the reaction, a detection mixture containing Europium-anti-acetyl-Histone H4 Lysine (H4Kac pan) Antibody (Perkin Elmer, TRF0412) and LANCE Ultra ULight™-Streptavidin in LANCE™ Detection buffer (10x) (Perkin Elmer, CR97-100) was added, followed by incubation at room temperature for 60 minutes. • 5. […] IC50 values were calculated by nonlinear regression using a four-parameter logistic equation in GraphPad Prism 8 software.
(In TR-FRET formats the signal depends on donor and acceptor labels being close together.)

A further experiment concerns the target T2, KAT6B (Homo sapiens, UniProt Q8WYB5).
T2 construct: purchased Active Motif 81224
In words: KATs acetyltransferase enzyme activity assay (TR-FRET), KAT6B. It is filed as biochemical. The conditions noted are these: Biotin-H3 (1-21) and AcCOA, 90 minutes at room temperature. As for the experimental part:
as §1
• 1. The inhibitory effect of compounds on the acetyltransferase activity of KATs was evaluated using the Time-Resolved Fluorescence Resonance Energy Transfer (TR-FRET) assay. The assay was conducted in 384-well plates using Tris-HCl buffer. • 2. Compounds were diluted in DMSO and transferred to 384-well plates. Enzyme solutions (KAT6: active motif (kit), 81223; KAT6B: active motif, 81224; KAT5: SignalChem, K314-380G; KAT7: ICE, S2210F-H21HF; KAT8: Active motif, 81225) were added and the mixture was incubated at room temperature for 15 minutes. • 3. Subsequently, 2.5 µL of a mixture containing KAT6A/KAT6B: Biotin-H3 (1-21, Genscript, C6829GL060) or KAT5/7/8: Bio-H4 (1-25, Genscript, C736BGL100) AcCOA (Sigma, A2056) was added, and the reaction proceeded at room temperature for 90 minutes. • 4. After the reaction, a detection mixture containing Europium-anti-acetyl-Histone H4 Lysine (H4Kac pan) Antibody (Perkin Elmer, TRF0412) and LANCE Ultra ULight™-Streptavidin in LANCE™ Detection buffer (10x) (Perkin Elmer, CR97-100) was added, followed by incubation at room temperature for 60 minutes. • 5. HTRF signals were measured using a BMG PHERAstar FSX (Ratio: 665nm/620nm). IC50 values were calculated by nonlinear regression using a four-parameter logistic equation in GraphPad Prism 8 software.

For experiment [1], the system named is ZR-75-1 H3K23 Acetylation. Description: Histone H3 acetylation assay (H3K23 acetylation in ZR-75-1 cells). It counts as cell-based. Particulars: Homo sapiens, 72 hours incubation, Odyssey CLx fluorescence, read-out: ZR-75-1 H3K23 Acetylation Inhibition IC50. The protocol:
III. Histone H3 acetylation assay
• 1. ZR-75-1 cells were seeded at 5000 cells/40 µL per well in 384-well plates and cultured overnight in an incubator at 37°C & 5% CO2. • 2. 40 nL of serially diluted compounds were added to the 384-well plates, followed by further incubation for 72 hours. • 3. The supernatant was discarded, and 8 w/v% paraformaldehyde (final concentration was 4 w/v%) was added directly to the wells to fix the cells at room temperature. • 4. After washing twice with PBS, a permeabilization agent (40 µL of methanol) was added and incubated for 10 minutes to permeabilize the cell membranes. • 5. After washing twice with PBS, a blocking buffer was added and incubated at room temperature for 1 hour for blocking. • 6. The blocking buffer was discarded, and 20 µL of primary antibodies (recombinant Anti-Histone H3 (acetyl K23) antibody and Anti-Histone H4 antibody) diluted in blocking buffer (1:1000 by volume dilution) were added, followed by incubation at 4°C overnight. • 7. After washing three times with PBST (0.05 vol% Tween-20 in PBS), 20 µL of fluorescent secondary antibodies (IRDye 680RD Goat anti-MOUSE, Licor, 926-68070; IRDye 800CW Goat anti-Rabbit, Licor, 926-32211) diluted in blocking buffer (1:2000 by volume dilution) were added, followed by incubation at room temperature, protected from light, for 1 hour. Then, the plates were washed three times with PBST. • 8. Scanning was performed using an Odyssey CLx, and the fluorescence signal value for each well was quantified. IC50 values were calculated by nonlinear regression using a four-parameter logistic equation in GraphPad Prism 8 software.

In the next experiment the test system is ZR-75-1 cells. In words: ZR-75-1 cell proliferation assay (CellTiter-Glo). It is filed as cell-based. The conditions noted are these: Homo sapiens, ZR-75-1, 240 h, total culture period of 10 days, read-out: ZR-75-1 Proliferation Inhibition IC50. As for the experimental part: II. ZR-75-1 cell proliferation assay
• 1. ZR-75-1 cells were seeded in 96-well plates and cultured overnight in an incubator at 37°C & 5% CO2. • 2. Compounds were diluted using culture medium and added to the 96-well plates. The plates were placed back into the incubator for continued culture. Every 5 days, the cells were trypsinized, counted, and re-seeded. After the cells had fully adhered, compounds were added again for incubation, for a total culture period of 10 days. • 3. After the culture period, 60 µL of CellTiter-Glo reagent (Promega, G7573) was added to each well. The plates were protected from light and shaken for 2 minutes to lyse the cells, followed by further incubation at room temperature, protected from light, for 30 minutes. • 4. Luminescence signals were read using a BMG PHERAstar FSX. IC50 values were calculated by nonlinear regression using a four-parameter logistic equation in GraphPad Prism 8 software.
A general note: ATP-based viability assays read luminescence as a measure of living cells.

T1 sequence (Q92794 488-778 limits assumed): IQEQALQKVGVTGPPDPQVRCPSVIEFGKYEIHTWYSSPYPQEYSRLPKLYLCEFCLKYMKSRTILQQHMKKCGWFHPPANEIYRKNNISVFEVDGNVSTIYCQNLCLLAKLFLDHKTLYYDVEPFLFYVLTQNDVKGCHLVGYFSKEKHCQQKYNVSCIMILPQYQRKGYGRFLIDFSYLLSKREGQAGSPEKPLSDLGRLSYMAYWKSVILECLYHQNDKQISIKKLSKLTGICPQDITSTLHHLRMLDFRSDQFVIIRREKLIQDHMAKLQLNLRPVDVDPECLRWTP
T2 sequence (Q8WYB5 whole entry): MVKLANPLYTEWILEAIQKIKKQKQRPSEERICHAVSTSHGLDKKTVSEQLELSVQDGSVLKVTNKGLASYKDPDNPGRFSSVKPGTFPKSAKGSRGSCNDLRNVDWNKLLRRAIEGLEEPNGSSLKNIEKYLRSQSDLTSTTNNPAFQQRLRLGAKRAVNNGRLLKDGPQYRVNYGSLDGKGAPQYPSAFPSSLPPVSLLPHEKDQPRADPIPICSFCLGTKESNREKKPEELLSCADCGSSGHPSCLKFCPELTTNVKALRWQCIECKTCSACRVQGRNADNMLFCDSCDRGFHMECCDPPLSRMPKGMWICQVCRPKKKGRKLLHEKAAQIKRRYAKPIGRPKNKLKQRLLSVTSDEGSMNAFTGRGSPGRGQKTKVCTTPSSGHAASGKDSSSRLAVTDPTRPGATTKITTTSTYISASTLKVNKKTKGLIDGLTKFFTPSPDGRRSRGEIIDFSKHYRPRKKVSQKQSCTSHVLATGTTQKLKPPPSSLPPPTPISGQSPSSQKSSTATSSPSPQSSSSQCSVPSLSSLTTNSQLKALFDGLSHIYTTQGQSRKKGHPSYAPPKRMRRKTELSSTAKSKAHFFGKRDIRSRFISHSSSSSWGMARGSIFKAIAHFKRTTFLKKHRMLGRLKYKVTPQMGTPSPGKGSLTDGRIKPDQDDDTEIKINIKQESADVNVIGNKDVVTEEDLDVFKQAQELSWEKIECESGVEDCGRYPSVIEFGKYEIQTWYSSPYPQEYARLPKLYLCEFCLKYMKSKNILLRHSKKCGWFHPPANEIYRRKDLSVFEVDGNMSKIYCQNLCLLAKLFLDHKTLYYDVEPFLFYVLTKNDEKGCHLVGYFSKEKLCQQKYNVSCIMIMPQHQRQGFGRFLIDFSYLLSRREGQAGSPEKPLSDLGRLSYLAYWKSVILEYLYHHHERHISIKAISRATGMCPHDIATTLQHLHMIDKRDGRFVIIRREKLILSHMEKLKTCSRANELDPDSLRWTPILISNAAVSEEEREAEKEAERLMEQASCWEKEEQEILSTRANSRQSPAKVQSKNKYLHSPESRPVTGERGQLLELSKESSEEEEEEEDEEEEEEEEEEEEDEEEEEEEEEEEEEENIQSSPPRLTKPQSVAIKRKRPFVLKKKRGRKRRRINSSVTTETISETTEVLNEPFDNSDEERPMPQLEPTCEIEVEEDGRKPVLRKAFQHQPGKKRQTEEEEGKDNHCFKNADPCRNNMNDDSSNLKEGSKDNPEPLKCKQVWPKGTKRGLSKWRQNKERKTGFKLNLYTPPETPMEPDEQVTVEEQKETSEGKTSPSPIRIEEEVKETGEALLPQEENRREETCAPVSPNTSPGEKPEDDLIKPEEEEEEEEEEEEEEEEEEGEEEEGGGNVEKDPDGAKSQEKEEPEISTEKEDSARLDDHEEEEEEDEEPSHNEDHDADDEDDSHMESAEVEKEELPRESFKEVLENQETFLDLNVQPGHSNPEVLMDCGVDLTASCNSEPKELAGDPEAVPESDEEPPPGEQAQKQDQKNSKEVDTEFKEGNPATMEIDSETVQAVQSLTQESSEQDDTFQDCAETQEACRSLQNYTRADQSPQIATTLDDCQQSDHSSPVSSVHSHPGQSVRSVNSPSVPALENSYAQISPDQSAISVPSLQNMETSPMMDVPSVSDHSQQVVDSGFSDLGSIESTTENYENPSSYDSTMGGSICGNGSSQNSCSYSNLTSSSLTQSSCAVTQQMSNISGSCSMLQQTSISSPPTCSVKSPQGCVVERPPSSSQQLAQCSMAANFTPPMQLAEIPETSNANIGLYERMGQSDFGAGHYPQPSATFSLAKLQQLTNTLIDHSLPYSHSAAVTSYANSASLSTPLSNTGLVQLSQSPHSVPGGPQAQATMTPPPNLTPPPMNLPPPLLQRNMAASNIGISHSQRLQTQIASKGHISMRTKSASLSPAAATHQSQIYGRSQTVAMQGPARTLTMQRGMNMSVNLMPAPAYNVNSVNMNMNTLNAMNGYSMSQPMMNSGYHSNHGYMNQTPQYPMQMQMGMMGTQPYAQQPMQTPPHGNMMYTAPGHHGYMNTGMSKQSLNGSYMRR

`COc1cc2c(cc1S(=O)(=O)Nc1noc3cc(Cn4cccn4)cc(OC)c13)COCCO2` [Compound 9, N-(6-((1H-Pyrazol-1-yl)methyl)-4-methoxybenzo[d]isoxazol-3-yl)-8-methoxy-2,3-dihyd ro-5H-benzo[e][1,4]dioxepine-7-sulfonamide]: the figures for the IC50 (against KAT6A; against KAT6B; in experiment [1]) were 1.6 nM, 9.5 nM and 2.1 nM, respectively.
Turning to `COc1ccc2c(c1S(=O)(=O)Nc1noc3cc(Cn4cccn4)c(C)cc13)OCCCO2` [Compound 17, N-(6-((1H-Pyrazol-1-yl)methyl)-5-methylbenzo[d]isoxazol-3-yl)-7-methoxy-3,4-dihydro-2H-benzo [b] [1,4] dioxepine-6-sulfonamide], the IC50 in the experiment with ZR-75-1 cells worked out at 3.7 nM.
For `COc1ccc2c(c1S(=O)(=O)Nc1noc3cc(Cn4cccn4)c4c(c13)OCCC4)OCCCO2` [Compound 22, N-(5-((1H-Pyrazol-1-yl)methyl)-3,4-dihydro-2H-chromeno[8,7-d]isoxazol-9-yl)-7-methoxy-3,4-dihydro-2H-benzo[b][1,4]dioxepine-6-sulfonamide], the results for the IC50 at KAT6A, on KAT6B and with ZR-75-1 cells were 1.5 nM, 7.3 nM and 0.5 nM, respectively.
Turning to `CCc1c(Cn2cccn2)cc2onc(NS(=O)(=O)c3c(OC)ccc4c3OCCCO4)c2c1OC` [Compound 26, N-(6-((1H-Pyrazol-1-yl)methyl)-5-ethyl-4-methoxybenzo[d]isoxazol-3-yl)-7-methoxy-3,4-dihydro-2H-benzo[b][1,4]dioxepine-6-sulfonamide], the IC50 came to 4.7 nM against KAT6A and 80.3 nM against KAT6B.
On to `COc1ccc2c(c1S(=O)(=O)Nc1noc3cc(Oc4ccccn4)cc(OC)c13)OC[C@@H]1C[C@H]21` [Compound 48, (1aR,7bS)-5-Methoxy-N-(4-methoxy-6-(pyridin-2-yloxy)benzo[d]isoxazol-3-yl)-1,1a,2,7 b-tetrahydrocyclopropa [c] chromene-4-sulfonamide], for which the IC50 against KAT6A turned out to be 1.7 nM; against KAT6B it was 15.6 nM; in experiment [1], 17.9 nM.
For `[2H]C([2H])(c1cc(OC)c2c(NS(=O)(=O)c3c(OC)ccc4c3OC[C@@H]3C[C@H]43)noc2c1)n1cccn1` [Compound 42, (1aR,7bS)-N-(6-((1H-Pyrazol-1-yl)methyl-d2)-4-methoxybenzo[d]isoxazol-3-yl)-5-methoxy-1,1a,2,7b-tetrahydrocyclopropa[c]chromene-4-sulfonamide], the results for the IC50 on KAT6A, against KAT6B and in the experiment on ZR-75-1 cells were 1.1 nM, 1.6 nM and 0.1 nM, respectively.
For the molecule `[2H]C([2H])(c1cc(OC)c2c(NS(=O)(=O)c3c(OC)ccc4c3OCCCO4)noc2c1)n1cccn1` [Compound 43, N-(6-((1H-Pyrazol-1-yl)methyl-d2)-4-methoxybenzo[d]isoxazol-3-yl)-7-methoxy-3,4-di hydro-2H-benzo[b][1,4]dioxepine-6-sulfonamide], the IC50 at KAT6A was 3.7 nM; on KAT6B it was 28.9 nM; in the experiment on ZR-75-1 cells, 1 nM.
As for `COc1ccc2c(c1S(=O)(=O)Nc1noc3cc(Cn4cccn4)c(C)c(OC)c13)OCC21CC1` [Compound 25, N-(6-((1H-Pyrazol-1-yl)methyl)-4-methoxy-5-methylbenzo[d]isoxazol-3-yl)-6-methoxy-2H-spiro[benzofuran-3,1'-cyclopropane]-7-sulfonamide], the IC50 at KAT6A turned out to be 5.9 nM; at KAT6B, 70.3 nM.
With `COc1ccc2c(c1S(=O)(=O)Nc1noc3cc(Cn4cccn4)cc(OC)c13)OCC21COC1` [Compound 49, N-(6-((1H-Pyrazol-1-yl)methyl)-4-methoxybenzo[d]isoxazol-3-yl)-6-methoxy-2H-spiro[benzofuran-3,3'-oxetane]-7-sulfonamide], the IC50 at KAT6A is 3 nM; at KAT6B it was 23.1 nM; in experiment [1], 4.2 nM.
Take `[2H]C([2H])([2H])Oc1cc(Cn2cccn2)cc2onc(NS(=O)(=O)c3c(OC)ccc4c3OCCCO4)c12` [Compound 46, 7-Methoxy-N-[6-(pyrazol-1-ylmethyl)-4-(trideuteriomethoxy)-1,2-benzoxazol-3-yl]-3,4-dihydro-2H-1,5-benzodioxepine-6-sulfonamide]: the values for the IC50 at KAT6A, against KAT6B and in the experiment on ZR-75-1 cells were 5.4 nM, 33.8 nM and 1 nM, respectively.
In the case of `COc1ccc2c(c1S(=O)(=O)Nc1noc3cc(Cn4cccn4)cc(OC)c13)OC1CC21` (stereo not shown) [Compound 44, 4-Methoxy-N-[4-methoxy-6-(pyrazol-1-ylmethyl)-1,2-benzoxazol-3-yl]-la,6b-dihydro-1 H-cyclopropa[b]benzofuran-3-sulfonamide], the IC50 on KAT6A is 1.7 nM; against KAT6B, 8.6 nM; in the experiment with ZR-75-1 cells, 0.3 nM.
For `COc1cc2c(cc1S(=O)(=O)Nc1noc3cc(Cn4cccn4)cc(OC)c13)C1(CC1)CO2` [Compound 4, N-(6-((1H-Pyrazol-1-yl)methyl)-4-methoxybenzo[d]isoxazol-3-yl)-6-methoxy-2H-spiro[benzofuran-3,1'-cyclopropane]-5-sulfonamide], the IC50 on KAT6A turned out to be 2 nM; against KAT6B, 15 nM.
For the molecule `[2H]C([2H])([2H])Oc1cc(Cn2cccn2)cc2onc(NS(=O)(=O)c3c(OC)ccc4c3OC[C@@H]3C[C@H]43)c12` [Compound 45, (1aR,7bS)-N-(6-((1H-Pyrazol-1-yl)methyl)-4-(methoxy-d3)benzo[d]isoxazol-3-yl)-5-met hoxy-1,1a,2,7b-tetrahydrocyclopropa[c]chromene-4-sulfonamide], the results for the IC50 against KAT6A, against KAT6B and with ZR-75-1 cells were 0.6 nM, 1.4 nM and 0.04 nM, respectively.
Regarding `COc1ccc2c(c1S(=O)(=O)Nc1noc3cc(Cn4cccn4)c(C)c(OC)c13)OCC1CC21` (stereo not shown) [Compound 24, N-(6-((1H-Pyrazol-1-yl)methyl)-4-methoxy-5-methylbenzo[d]isoxazol-3-yl)-5-methoxy-1,1a,2,7b-tetrahydrocyclopropa[c]chromene-4-sulfonamide], the IC50 was determined as 3.1 nM on KAT6A and 34.4 nM against KAT6B.
Take `CCOc1cc2c(NS(=O)(=O)c3c(OC)ccc4c3OCCCO4)noc2cc1Cn1cccn1` [Compound 18, N-(6-((1H-Pyrazol-1-yl)methyl)-5-ethoxybenzo[d]isoxazol-3-yl)-7-methoxy-3,4-dihydro-2H-benzo [b] [1,4] dioxepine-6-sulfonamide]: the IC50 in the experiment on ZR-75-1 cells turned out to be 22.1 nM.
